Test results reported in US20180244611A1, “Modulators of the Cystic Fibrosis Transmembrane Conductance Regulator Protein and Methods of Use” (AbbVie S.à.r.l., priority 2017, published 2018).

Legend:
[1] = molecular target: T1, F508delCFTR (Homo sapiens, UniProt P13569, DEL508-508); assay: Cell Surface Expression-Horse Radish Peroxidase (CSE-HRP) assay, test compound without co-corrector; type: cell-based; details: for EC50: test compound without co-corrector; for Emax / Maximum % activity (without co-corrector): maximum at any tested concentration, without co-corrector; for Emax: normalized to on-plate positive control; for Maximum % activity (without co-corrector): normalized to positive control;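 on Maximum % activity (without co-corrector): percent of on-plate 2 µM positive control corrector response over DMSO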
T1 construct: expressed in transfected cells; host or cells: CFBE41o- human lung-derived epithelial cells (CFBE41o-F508delCFTR-HRP), doxycycline-inducible
How it was run: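 CFBE41o- cells expressing F508delCFTR with HRP in the fourth exofacial loop, induced with 0.5 μg/mL doxycycline for 72 h at 37° C, then exposed to compound alone for 18-24 h at 33° C, 8-point 3-fold series from 20 μM. Surface HRP read by luminol luminescence, normalized to positive corrector control versus DMSO; EC50 from variable-slope sigmoidal fit of three replicate plates.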

[2] = molecular target: T1, F508delCFTR; assay: Cell Surface Expression-Horse Radish Peroxidase (CSE-HRP) assay, test compound with co-corrector; type: cell-based; details: for Maximum % activity (with co-corrector): maximum at any tested concentration;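 on Maximum % activity (with co-corrector): percent of 2 µM positive control corrector over DMSO; co-corrector is that same compound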
How it was run: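 CFBE41o- cells expressing F508delCFTR with HRP in the fourth exofacial loop, induced with 0.5 μg/mL doxycycline for 72 h, then treated 18-24 h at 33° C. with compound (8 points, top 20 μM, 3-fold) plus 2 μM co-corrector. Surface HRP read by luminol luminescence; activity normalised to positive control, EC50 from variable-slope sigmoidal fit.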

[3] = CSE-HRP assay, test compound with 2 μM co-corrector
[4] = normalized to on-plate positive control, with 2 μM co-corrector
[5] = normalized to positive control, with 2 μM co-corrector

T1 sequence (P13569 with tags, fused parts or gaps DEL508-508): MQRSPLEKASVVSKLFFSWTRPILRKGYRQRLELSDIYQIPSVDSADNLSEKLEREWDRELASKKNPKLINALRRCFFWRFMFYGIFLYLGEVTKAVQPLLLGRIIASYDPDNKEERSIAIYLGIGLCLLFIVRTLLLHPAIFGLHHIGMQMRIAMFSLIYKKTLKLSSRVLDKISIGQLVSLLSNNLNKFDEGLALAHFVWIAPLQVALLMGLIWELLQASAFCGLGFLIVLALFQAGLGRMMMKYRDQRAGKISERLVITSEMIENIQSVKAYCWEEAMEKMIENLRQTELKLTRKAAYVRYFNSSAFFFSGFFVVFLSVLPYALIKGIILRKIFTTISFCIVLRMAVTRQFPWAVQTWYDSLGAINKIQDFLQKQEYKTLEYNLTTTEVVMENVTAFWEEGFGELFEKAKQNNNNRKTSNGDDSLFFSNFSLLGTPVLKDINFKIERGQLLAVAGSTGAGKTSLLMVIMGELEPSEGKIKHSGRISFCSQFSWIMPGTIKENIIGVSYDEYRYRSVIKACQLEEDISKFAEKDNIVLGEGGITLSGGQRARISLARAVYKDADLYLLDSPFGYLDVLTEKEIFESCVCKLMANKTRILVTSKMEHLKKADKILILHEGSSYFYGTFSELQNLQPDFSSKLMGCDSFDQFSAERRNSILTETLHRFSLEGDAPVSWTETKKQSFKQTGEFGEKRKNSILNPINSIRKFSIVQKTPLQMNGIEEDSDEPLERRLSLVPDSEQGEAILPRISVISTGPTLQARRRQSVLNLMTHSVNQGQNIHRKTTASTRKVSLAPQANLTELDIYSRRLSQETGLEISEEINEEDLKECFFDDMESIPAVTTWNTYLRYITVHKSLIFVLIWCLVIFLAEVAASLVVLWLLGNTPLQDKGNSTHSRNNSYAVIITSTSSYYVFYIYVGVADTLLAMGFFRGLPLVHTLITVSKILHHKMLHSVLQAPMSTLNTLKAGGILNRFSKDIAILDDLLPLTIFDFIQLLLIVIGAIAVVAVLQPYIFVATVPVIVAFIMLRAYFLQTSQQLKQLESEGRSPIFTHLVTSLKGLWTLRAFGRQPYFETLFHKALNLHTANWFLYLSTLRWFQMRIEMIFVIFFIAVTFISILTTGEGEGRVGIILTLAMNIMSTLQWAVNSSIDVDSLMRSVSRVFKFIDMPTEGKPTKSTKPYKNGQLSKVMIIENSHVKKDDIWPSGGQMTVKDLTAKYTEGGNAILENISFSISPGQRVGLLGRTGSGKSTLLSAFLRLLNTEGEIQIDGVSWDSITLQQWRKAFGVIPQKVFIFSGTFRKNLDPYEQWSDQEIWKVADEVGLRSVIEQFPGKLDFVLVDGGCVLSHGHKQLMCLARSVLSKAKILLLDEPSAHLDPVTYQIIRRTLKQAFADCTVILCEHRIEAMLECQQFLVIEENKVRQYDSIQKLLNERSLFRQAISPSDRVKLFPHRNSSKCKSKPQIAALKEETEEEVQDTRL

Compound | EC50 ([1]; CSE-HRP assay) | Emax [1] | EC50 [2, 3] | Maximum % activity (with co-corrector) [2, 4] | Maximum % activity (without co-corrector) [1] | EC50 [1] | Maximum % activity (with co-corrector) [2, 5] | EC50 ([2]; with 2 μM co-corrector)
CCOc1ccc(S(=O)(=O)NC(=O)C2CCc3c(Br)ccc(OC)c32)c2ccccc12 (stereo not drawn) [III-161] | 3 to 10 µM | < 50% | 3 to 10 µM | ++ (≥150 and <350) |  |  |  | 
COc1ccc(Br)c2c1C(C(=O)NS(=O)(=O)c1ccc(OC)c3ccccc13)CC2 (stereo not drawn) [III-162] | 3 to 10 µM | 50 to 150% | 3 to 10 µM | +++ (≥350) |  |  |  | 
COc1ccc(Br)c2c1C(C(=O)NS(=O)(=O)c1cccn3cnnc13)CC2 (stereo not drawn) [III-163] | ≥ 10 µM | < 50% | 3 to 10 µM | ++ (≥150 and <350) |  |  |  | 
COc1ccc(-c2cncnc2)c2c1C(C(=O)NS(=O)(=O)c1cccc3ccccc13)CCC2 (stereo not drawn) [III-164] | < 3 µM | 50 to 150% | < 3 µM | +++ (≥350) |  |  |  | 
COc1ccc(-c2ccc(C3CC3)nc2)c2c1C(C(=O)NS(=O)(=O)c1cccc3ccccc13)CCC2 (stereo not drawn) [III-165] | 3 to 10 µM | 50 to 150% | < 3 µM | ++ (≥150 and <350) |  |  |  | 
COc1ccc(-c2ccncc2)c2c1C(C(=O)NS(=O)(=O)c1cccc3ccccc13)CCC2 (stereo not drawn) [III-166] | < 3 µM | 50 to 150% | < 3 µM | ++ (≥150 and <350) |  |  |  | 
COc1ccc(-c2ccc(C)nc2)c2c1C(C(=O)NS(=O)(=O)c1cccc3ccccc13)CCC2 (stereo not drawn) [III-167] | 3 to 10 µM | < 50% | < 3 µM | ++ (≥150 and <350) |  |  |  | 
COc1ccc(-c2cncnc2)c2c1C(C(=O)NS(=O)(=O)c1cccc3ncccc13)CC2 (stereo not drawn) [III-168] | 3 to 10 µM | 50 to 150% | 3 to 10 µM | +++ (≥350) |  |  |  | 
COc1ccc(C2=CCOCC2)c2c1C(C(=O)NS(=O)(=O)c1cccc3ncccc13)CC2 (stereo not drawn) [III-169] | 3 to 10 µM | ≥ 150% | < 3 µM | +++ (≥350) |  |  |  | 
COc1ccc(-c2ccc(C)cc2)c2c1C(C(=O)NS(=O)(=O)c1cccc3ccccc13)CCC2 (stereo not drawn) [III-170] | < 3 µM | 50 to 150% | < 3 µM | +++ (≥350) |  |  |  | 
COc1ccc(-c2ccc(C(F)(F)F)nc2)c2c1C(C(=O)NS(=O)(=O)c1cccc3ccccc13)CCC2 (stereo not drawn) [III-171] | 3 to 10 µM | 50 to 150% | 3 to 10 µM | +++ (≥350) |  |  |  | 
CCC1(C(=O)NS(=O)(=O)c2cccc(N3CCOCC3)c2C)CCc2c(Cl)cccc21 (stereo not drawn) [III-172] | 3 to 10 µM | < 50% | < 3 µM | ++ (≥150 and <350) |  |  |  | 
CCC1(C(=O)NS(=O)(=O)c2cccc(N(C)CCOC)c2C)CCc2c(Cl)cccc21 (stereo not drawn) [III-173] | 3 to 10 µM | 50 to 150% | 3 to 10 µM | +++ (≥350) |  |  |  | 
COc1ccc(N2CCCC2)c2c1CCCC2C(=O)NS(=O)(=O)c1cccc2ccccc12 (stereo not drawn) [III-174] | ≥ 10 µM | < 50% | ≥ 10 µM | + (<150) |  |  |  | 
COc1ccc2c(c1OC)CC2C(=O)NS(=O)(=O)c1ccccc1C (stereo not drawn) [III-175] | ≥ 10 µM | < 50% | ≥ 10 µM | + (<150) |  |  |  | 
Cc1ccccc1S(=O)(=O)NC(=O)C1Cc2ccccc21 (stereo not drawn) [III-176] | ≥ 10 µM | < 50% | ≥ 10 µM | + (<150) |  |  |  | 
COc1ccc2c(c1OC)CC2C(=O)NS(=O)(=O)c1cccc2ccccc12 (stereo not drawn) [III-177] | ≥ 10 µM | < 50% | 3 to 10 µM | ++ (≥150 and <350) |  |  |  | 
COc1ccc2c(n1)CCC2C(=O)NS(=O)(=O)c1cccc2ccccc12 (stereo not drawn) [III-178] | 3 to 10 µM | < 50% | 3 to 10 µM | ++ (≥150 and <350) |  |  |  | 
CCC1(C(=O)NS(=O)(=O)c2cccc(Cl)c2C(=O)O)CCc2c(Cl)cccc21 (stereo not drawn) [III-179] | ≥ 10 µM | < 50% | ≥ 10 µM | + (<150) |  |  |  | 
COc1ccc(Br)c2c1C(C(=O)NS(=O)(=O)c1cccc3c(C(=O)O)cccc13)CC2 (stereo not drawn) [III-181] | ≥ 10 µM | < 50% | 3 to 10 µM | ++ (≥150 and <350) |  |  |  | 
COc1cccc2c1C(C(=O)NS(=O)(=O)c1cccc3ccccc13)CC2 (stereo not drawn) [III-182] | < 3 µM | 50 to 150% | < 3 µM | ++ (≥150 and <350) |  |  |  | 
COc1ccc(C(=O)O)c2c1C(C(=O)NS(=O)(=O)c1cccc3ccccc13)CC2 (stereo not drawn) [III-183] | ≥ 10 µM | < 50% | 3 to 10 µM | ++ (≥150 and <350) |  |  |  | 
COC(=O)c1ccc(OC)c2c1CCC2C(=O)NS(=O)(=O)c1cccc2ccccc12 (stereo not drawn) [III-184] |  | 50 to 150% |  | ++ (≥150 and <350) |  |  |  | 
COc1ccc(CO)c2c1C(C(=O)NS(=O)(=O)c1cccc3ccccc13)CC2 (stereo not drawn) [III-185] | 3 to 10 µM | < 50% | 3 to 10 µM | ++ (≥150 and <350) |  |  |  | 
CNC(=O)c1ccc(OC)c2c1CCC2C(=O)NS(=O)(=O)c1cccc2ccccc12 (stereo not drawn) [III-186] | ≥ 10 µM | < 50% | ≥ 10 µM | + (<150) |  |  |  | 
COc1ccc(C(=O)N(C)C)c2c1C(C(=O)NS(=O)(=O)c1cccc3ccccc13)CC2 (stereo not drawn) [III-187] | ≥ 10 µM | < 50% | ≥ 10 µM | + (<150) |  |  |  | 
COc1ccc(CN2CCCC2)c2c1C(C(=O)NS(=O)(=O)c1cccc3ccccc13)CC2 (stereo not drawn) [III-188] | ≥ 10 µM | < 50% | 3 to 10 µM | + (<150) |  |  |  | 
(1R)-4-cyclobutyl-7-methoxy-N-(1,2,3,4-tetrahydroquinoline-8-sulfonyl)-2,3-dihydro-1H-indene-1-carboxamide [Example I-131] |  |  |  |  | +++ (≥150) | < 3 µM | +++ (≥350) | < 3 µM
(1S)-7-chloro-1-methyl-N-(naphthalene-1-sulfonyl)-2,3-dihydro-1H-indene-1-carboxamide [Example I-26] |  |  |  |  | ++ (≥50 and <150) | < 3 µM | +++ (≥350) | < 3 µM
